Laboratory results reported in PubChem BioAssay (NCI).
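Five compound concentrations were applied to cells in 96-well plates for 48 hours; endpoints were derived by simple linear interpolation of the resulting dose-response curve. Here, GI50 denotes the concentration required for 50% inhibition of growth. At the TGI there is no net growth.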

Tests used:
Assay in all cases: NCI tumour cell line growth inhibition, 48 h
UACC-62 melanoma = tested on: UACC-62 melanoma
HOP-92 NSCLC = tested on: HOP-92 NSCLC
CAKI-1 renal = tested on: CAKI-1 renal
CCRF-CEM leukemia = tested on: CCRF-CEM leukemia
M14 melanoma = tested on: M14 melanoma
K-562 leukemia = tested on: K-562 leukemia
HL-60(TB) leukemia = tested on: HL-60(TB) leukemia
MOLT-4 leukemia = tested on: MOLT-4 leukemia
SF-268 CNS = tested on: SF-268 CNS
PC-3 prostate = tested on: PC-3 prostate
SW-620 colon = tested on: SW-620 colon
EKVX NSCLC = tested on: EKVX NSCLC
HCC-2998 colon = tested on: HCC-2998 colon
OVCAR-4 ovarian = tested on: OVCAR-4 ovarian
HOP-62 NSCLC = tested on: HOP-62 NSCLC
HCT-116 colon = tested on: HCT-116 colon
A498 renal = tested on: A498 renal
MALME-3M melanoma = tested on: MALME-3M melanoma
SN12C renal = tested on: SN12C renal
MDA-MB-231 breast = tested on: MDA-MB-231 breast
OVCAR-5 ovarian = tested on: OVCAR-5 ovarian
SK-MEL-5 melanoma = tested on: SK-MEL-5 melanoma
SK-MEL-28 melanoma = tested on: SK-MEL-28 melanoma
NCI-H460 lung = tested on: NCI-H460 lung
SK-MEL-2 melanoma = tested on: SK-MEL-2 melanoma
BT-549 breast = tested on: BT-549 breast
TK-10 renal = tested on: TK-10 renal
OVCAR-3 ovarian = tested on: OVCAR-3 ovarian
HT29 colon = tested on: HT29 colon
DU-145 prostate = tested on: DU-145 prostate
ACHN renal = tested on: ACHN renal
NCI-H226 lung = tested on: NCI-H226 lung
RXF 393 renal = tested on: RXF 393 renal
SR leukemia = tested on: SR leukemia
U251 CNS = tested on: U251 CNS
NCI/ADR-RES ovarian = tested on: NCI/ADR-RES ovarian
T-47D breast = tested on: T-47D breast
A549 NSCLC = tested on: A549 NSCLC
IGROV1 ovarian = tested on: IGROV1 ovarian
RPMI-8226 leukemia = tested on: RPMI-8226 leukemia
SK-OV-3 ovarian = tested on: SK-OV-3 ovarian
OVCAR-8 ovarian = tested on: OVCAR-8 ovarian
NCI-H23 lung = tested on: NCI-H23 lung
UO-31 renal = tested on: UO-31 renal
COLO 205 colon = tested on: COLO 205 colon
MDA-MB-435 = tested on: MDA-MB-435
HS 578T breast = tested on: HS 578T breast
MCF7 breast = tested on: MCF7 breast
MDA-MB-468 breast = tested on: MDA-MB-468 breast
UACC-257 melanoma = tested on: UACC-257 melanoma
SNB-75 CNS = tested on: SNB-75 CNS
SF-539 CNS = tested on: SF-539 CNS
KM12 colon = tested on: KM12 colon
NCI-H522 lung = tested on: NCI-H522 lung
LOX IMVI melanoma = tested on: LOX IMVI melanoma
SNB-19 CNS = tested on: SNB-19 CNS
HCT-15 colon = tested on: HCT-15 colon
SF-295 CNS = tested on: SF-295 CNS
786-0 renal = tested on: 786-0 renal

Q: With `CNS(=O)(=O)N1CCc2c(Br)c3c(c(OC)c2C1CCc1ccccc1)OCO3` (stereo not drawn) as the molecule, how does the GI50 (UACC-62 melanoma) read?
A: 6.4 µM

Q: What about the TGI (UACC-62 melanoma) of the same molecule?
A: 21.4 µM

Q: What about the GI50 (HOP-92 NSCLC) of the same molecule?
A: 11.4 µM

Q: And the TGI (HOP-92 NSCLC)?
A: 33.4 µM

Q: And the GI50 (CAKI-1 renal)?
A: 7.25 µM

Q: And the TGI (CAKI-1 renal)?
A: > 100 µM

Q: What about the GI50 (CCRF-CEM leukemia) of the same molecule?
A: 24.3 µM

Q: And the TGI (CCRF-CEM leukemia)?
A: > 100 µM

Q: And the GI50 (M14 melanoma)?
A: 12.2 µM

Q: What about the TGI (M14 melanoma) of the same molecule?
A: 34 µM

Q: And the GI50 (K-562 leukemia)?
A: 17.3 µM

Q: What about the TGI (K-562 leukemia) of the same molecule?
A: > 100 µM

Q: What about the GI50 (HL-60(TB) leukemia) of the same molecule?
A: 22.9 µM

Q: And the TGI (HL-60(TB) leukemia)?
A: 61.9 µM

Q: What about the GI50 (MOLT-4 leukemia) of the same molecule?
A: 10.4 µM

Q: What about the TGI (MOLT-4 leukemia) of the same molecule?
A: > 100 µM

Q: And the GI50 (SF-268 CNS)?
A: 16.8 µM

Q: What about the TGI (SF-268 CNS) of the same molecule?
A: > 100 µM

Q: What about the GI50 (PC-3 prostate) of the same molecule?
A: 5.67 µM

Q: And the TGI (PC-3 prostate)?
A: > 100 µM

Q: What about the GI50 (SW-620 colon) of the same molecule?
A: 21.8 µM

Q: And the TGI (SW-620 colon)?
A: > 100 µM

Q: And the GI50 (EKVX NSCLC)?
A: 14.1 µM

Q: And the TGI (EKVX NSCLC)?
A: > 100 µM

Q: And the GI50 (HCC-2998 colon)?
A: 18.4 µM

Q: And the TGI (HCC-2998 colon)?
A: 75.7 µM

Q: And the GI50 (OVCAR-4 ovarian)?
A: 14.7 µM

Q: What about the TGI (OVCAR-4 ovarian) of the same molecule?
A: 85 µM

Q: What about the GI50 (HOP-62 NSCLC) of the same molecule?
A: 13.5 µM

Q: What about the TGI (HOP-62 NSCLC) of the same molecule?
A: 37.5 µM

Q: And the GI50 (HCT-116 colon)?
A: 6.64 µM

Q: What about the TGI (HCT-116 colon) of the same molecule?
A: 26.3 µM

Q: What about the GI50 (A498 renal) of the same molecule?
A: 15.7 µM

Q: And the TGI (A498 renal)?
A: 34.6 µM

Q: And the GI50 (MALME-3M melanoma)?
A: 17.8 µM

Q: And the TGI (MALME-3M melanoma)?
A: 34.8 µM

Q: What about the GI50 (SN12C renal) of the same molecule?
A: 11.6 µM

Q: And the TGI (SN12C renal)?
A: 24.7 µM

Q: What about the GI50 (MDA-MB-231 breast) of the same molecule?
A: 7.33 µM

Q: And the TGI (MDA-MB-231 breast)?
A: 22.3 µM

Q: And the GI50 (OVCAR-5 ovarian)?
A: 14.1 µM

Q: What about the TGI (OVCAR-5 ovarian) of the same molecule?
A: 33.8 µM

Q: And the GI50 (SK-MEL-5 melanoma)?
A: 15.4 µM

Q: What about the TGI (SK-MEL-5 melanoma) of the same molecule?
A: 28.8 µM

Q: What about the GI50 (SK-MEL-28 melanoma) of the same molecule?
A: 15.7 µM

Q: And the TGI (SK-MEL-28 melanoma)?
A: 31.1 µM

Q: What about the GI50 (NCI-H460 lung) of the same molecule?
A: 13.7 µM

Q: And the TGI (NCI-H460 lung)?
A: 30.1 µM

Q: And the GI50 (SK-MEL-2 melanoma)?
A: 14.5 µM

Q: And the TGI (SK-MEL-2 melanoma)?
A: 30.7 µM

Q: And the GI50 (BT-549 breast)?
A: 15.4 µM

Q: What about the TGI (BT-549 breast) of the same molecule?
A: 30 µM

Q: What about the GI50 (TK-10 renal) of the same molecule?
A: 34.4 µM

Q: And the TGI (TK-10 renal)?
A: > 100 µM

Q: And the GI50 (OVCAR-3 ovarian)?
A: 13.7 µM

Q: And the TGI (OVCAR-3 ovarian)?
A: 29.9 µM

Q: What about the GI50 (HT29 colon) of the same molecule?
A: 18.7 µM

Q: And the TGI (HT29 colon)?
A: > 100 µM

Q: And the GI50 (DU-145 prostate)?
A: 29.2 µM

Q: And the TGI (DU-145 prostate)?
A: > 100 µM

Q: And the GI50 (ACHN renal)?
A: 20.3 µM

Q: What about the TGI (ACHN renal) of the same molecule?
A: 92.2 µM

Q: And the GI50 (NCI-H226 lung)?
A: 10.8 µM

Q: And the TGI (NCI-H226 lung)?
A: 25.8 µM

Q: What about the GI50 (RXF 393 renal) of the same molecule?
A: 13.5 µM

Q: What about the TGI (RXF 393 renal) of the same molecule?
A: 31.4 µM

Q: What about the GI50 (SR leukemia) of the same molecule?
A: 24 µM

Q: What about the TGI (SR leukemia) of the same molecule?
A: > 100 µM

Q: And the GI50 (U251 CNS)?
A: 15.6 µM

Q: What about the TGI (U251 CNS) of the same molecule?
A: 35.6 µM

Q: And the GI50 (NCI/ADR-RES ovarian)?
A: 14 µM

Q: And the TGI (NCI/ADR-RES ovarian)?
A: 86.9 µM

Q: And the GI50 (T-47D breast)?
A: 9.48 µM

Q: And the TGI (T-47D breast)?
A: 67.4 µM

Q: What about the GI50 (A549 NSCLC) of the same molecule?
A: 14.7 µM

Q: And the TGI (A549 NSCLC)?
A: > 100 µM

Q: What about the GI50 (IGROV1 ovarian) of the same molecule?
A: 14.1 µM

Q: And the TGI (IGROV1 ovarian)?
A: 81.6 µM

Q: What about the GI50 (RPMI-8226 leukemia) of the same molecule?
A: 12.4 µM

Q: What about the TGI (RPMI-8226 leukemia) of the same molecule?
A: > 100 µM

Q: And the GI50 (SK-OV-3 ovarian)?
A: 20.9 µM

Q: And the TGI (SK-OV-3 ovarian)?
A: 73.6 µM

Q: What about the GI50 (OVCAR-8 ovarian) of the same molecule?
A: 24.6 µM

Q: What about the TGI (OVCAR-8 ovarian) of the same molecule?
A: > 100 µM

Q: What about the GI50 (NCI-H23 lung) of the same molecule?
A: 17 µM

Q: And the TGI (NCI-H23 lung)?
A: 72.4 µM

Q: And the GI50 (UO-31 renal)?
A: 10.2 µM

Q: And the TGI (UO-31 renal)?
A: 69.1 µM

Q: What about the GI50 (COLO 205 colon) of the same molecule?
A: 14.9 µM

Q: And the TGI (COLO 205 colon)?
A: 30.7 µM

Q: And the GI50 (MDA-MB-435)?
A: 12.5 µM

Q: What about the TGI (MDA-MB-435) of the same molecule?
A: 31.3 µM

Q: And the GI50 (HS 578T breast)?
A: 12.7 µM

Q: And the TGI (HS 578T breast)?
A: 42 µM

Q: What about the GI50 (MCF7 breast) of the same molecule?
A: 16.6 µM

Q: What about the TGI (MCF7 breast) of the same molecule?
A: 90.7 µM

Q: And the GI50 (MDA-MB-468 breast)?
A: 9.95 µM

Q: And the TGI (MDA-MB-468 breast)?
A: 35.5 µM

Q: What about the GI50 (UACC-257 melanoma) of the same molecule?
A: 20.9 µM

Q: What about the TGI (UACC-257 melanoma) of the same molecule?
A: 51.5 µM

Q: What about the GI50 (SNB-75 CNS) of the same molecule?
A: 4.24 µM

Q: And the TGI (SNB-75 CNS)?
A: 34.5 µM

Q: What about the GI50 (SF-539 CNS) of the same molecule?
A: 15.2 µM

Q: And the TGI (SF-539 CNS)?
A: 30.1 µM

Q: And the GI50 (KM12 colon)?
A: 19.4 µM

Q: What about the TGI (KM12 colon) of the same molecule?
A: 78.1 µM

Q: What about the GI50 (NCI-H522 lung) of the same molecule?
A: 13 µM

Q: And the TGI (NCI-H522 lung)?
A: 38.7 µM

Q: And the GI50 (LOX IMVI melanoma)?
A: 10.1 µM

Q: And the TGI (LOX IMVI melanoma)?
A: 23.5 µM

Q: What about the GI50 (SNB-19 CNS) of the same molecule?
A: 23.8 µM

Q: What about the TGI (SNB-19 CNS) of the same molecule?
A: > 100 µM

Q: What about the GI50 (HCT-15 colon) of the same molecule?
A: 23.1 µM

Q: And the TGI (HCT-15 colon)?
A: > 100 µM

Q: What about the GI50 (SF-295 CNS) of the same molecule?
A: 11.1 µM

Q: What about the TGI (SF-295 CNS) of the same molecule?
A: 31.8 µM

Q: What about the GI50 (786-0 renal) of the same molecule?
A: 19.6 µM

Q: What about the TGI (786-0 renal) of the same molecule?
A: 62.5 µM
